The structures appear in SMILES notation.

In experiment [1] the target is SRSF protein kinase 1 (Homo sapiens, UniProt Q96SB4). Put plainly: Selectivity interaction (ProQinase) EUB0000171b SRPK1.
Experiment [2] concerns the target LIM domain kinase 2 (Homo sapiens) (UniProt P53671). Conditions: at 10 µM.
Experiment [3] concerns the target T1, Serine/threonine-protein kinase ICK (Homo sapiens) (UniProt Q9UPZ9).
T1 sequence (whole entry): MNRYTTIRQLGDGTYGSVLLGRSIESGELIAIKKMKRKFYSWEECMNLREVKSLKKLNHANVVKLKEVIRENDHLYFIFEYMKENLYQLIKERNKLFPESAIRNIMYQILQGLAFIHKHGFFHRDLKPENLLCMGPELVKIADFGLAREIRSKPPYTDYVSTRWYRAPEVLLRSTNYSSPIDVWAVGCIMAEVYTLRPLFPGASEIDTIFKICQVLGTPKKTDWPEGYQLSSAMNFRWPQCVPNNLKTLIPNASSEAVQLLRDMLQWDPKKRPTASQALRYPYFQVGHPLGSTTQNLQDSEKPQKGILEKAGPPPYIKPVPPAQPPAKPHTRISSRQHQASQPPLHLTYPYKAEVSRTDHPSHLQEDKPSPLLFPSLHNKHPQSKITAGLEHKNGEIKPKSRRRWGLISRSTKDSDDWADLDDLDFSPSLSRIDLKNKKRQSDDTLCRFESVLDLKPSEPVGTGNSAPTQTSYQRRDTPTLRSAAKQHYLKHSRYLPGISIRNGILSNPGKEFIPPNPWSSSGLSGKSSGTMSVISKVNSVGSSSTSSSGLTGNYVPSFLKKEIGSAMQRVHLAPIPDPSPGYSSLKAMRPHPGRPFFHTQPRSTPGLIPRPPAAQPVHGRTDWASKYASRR
Put plainly: Selectivity interaction (Ambit KINOMEscan and KiNATiv profiling in Jurkat cells) EUB0000090b ICK. It counts as cell-based. Conditions: at 1 µM.

Experiment [4] deals with Dual specificity mitogen-activated protein kinase kinase 2 (Homo sapiens) (UniProt P36507).
Dual specificity mitogen-activated protein kinase kinase 2 (Homo sapiens), sequence (P36507 whole entry): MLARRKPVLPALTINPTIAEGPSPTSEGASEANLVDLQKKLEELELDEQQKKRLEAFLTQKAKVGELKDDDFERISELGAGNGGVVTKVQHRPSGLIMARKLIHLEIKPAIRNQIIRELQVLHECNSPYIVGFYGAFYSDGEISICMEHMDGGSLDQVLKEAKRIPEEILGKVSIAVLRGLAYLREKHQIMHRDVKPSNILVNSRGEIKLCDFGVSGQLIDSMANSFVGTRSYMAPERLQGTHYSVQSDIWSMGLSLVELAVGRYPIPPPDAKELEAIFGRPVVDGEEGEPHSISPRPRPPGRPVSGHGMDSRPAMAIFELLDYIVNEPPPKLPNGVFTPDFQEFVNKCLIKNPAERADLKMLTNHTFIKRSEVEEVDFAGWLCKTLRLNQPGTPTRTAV
Experiment [5] concerns the target Tyrosine-protein kinase JAK1 (Homo sapiens, UniProt P23458). Description: Selectivity interaction (KinomeScan (DiscoverX)) EUB0000092b JAK1. Conditions: at 10 µM.
Experiment [6] addresses Insulin receptor-related protein (Homo sapiens) (UniProt P14616). Put plainly: Selectivity interaction (Kinase screening (Nanosyn)) EUB0000604a INSRR.
For experiment [7], the target named is Bromodomain testis-specific protein (Homo sapiens) (UniProt Q58F21). Put plainly: Selectivity interaction (Bromodomain panel (DSF asssay)) EUB0000270b BRDT.
Experiment [8] in a line: Selectivity interaction (KinomeScan (DiscoverX)) EUB0000045b CDK2H. The settings on record: at 1 µM.
Experiment [9] concerns the target Tyrosine-protein kinase BTK (Homo sapiens, UniProt Q06187). Description: Selectivity interaction (KinomeScan (DiscoverX)) EUB0000666a BTK. The settings on record: at 10 µM.
For experiment [10], the target named is Serine/threonine-protein kinase/endoribonuclease IRE1 (Homo sapiens) (UniProt O75460). Description: Selectivity interaction (KinomeScan (DiscoverX)) EUB0000666a ERN1. Conditions: at 10 µM.
Serine/threonine-protein kinase/endoribonuclease IRE1 (Homo sapiens), sequence (O75460 19-977 limits assumed): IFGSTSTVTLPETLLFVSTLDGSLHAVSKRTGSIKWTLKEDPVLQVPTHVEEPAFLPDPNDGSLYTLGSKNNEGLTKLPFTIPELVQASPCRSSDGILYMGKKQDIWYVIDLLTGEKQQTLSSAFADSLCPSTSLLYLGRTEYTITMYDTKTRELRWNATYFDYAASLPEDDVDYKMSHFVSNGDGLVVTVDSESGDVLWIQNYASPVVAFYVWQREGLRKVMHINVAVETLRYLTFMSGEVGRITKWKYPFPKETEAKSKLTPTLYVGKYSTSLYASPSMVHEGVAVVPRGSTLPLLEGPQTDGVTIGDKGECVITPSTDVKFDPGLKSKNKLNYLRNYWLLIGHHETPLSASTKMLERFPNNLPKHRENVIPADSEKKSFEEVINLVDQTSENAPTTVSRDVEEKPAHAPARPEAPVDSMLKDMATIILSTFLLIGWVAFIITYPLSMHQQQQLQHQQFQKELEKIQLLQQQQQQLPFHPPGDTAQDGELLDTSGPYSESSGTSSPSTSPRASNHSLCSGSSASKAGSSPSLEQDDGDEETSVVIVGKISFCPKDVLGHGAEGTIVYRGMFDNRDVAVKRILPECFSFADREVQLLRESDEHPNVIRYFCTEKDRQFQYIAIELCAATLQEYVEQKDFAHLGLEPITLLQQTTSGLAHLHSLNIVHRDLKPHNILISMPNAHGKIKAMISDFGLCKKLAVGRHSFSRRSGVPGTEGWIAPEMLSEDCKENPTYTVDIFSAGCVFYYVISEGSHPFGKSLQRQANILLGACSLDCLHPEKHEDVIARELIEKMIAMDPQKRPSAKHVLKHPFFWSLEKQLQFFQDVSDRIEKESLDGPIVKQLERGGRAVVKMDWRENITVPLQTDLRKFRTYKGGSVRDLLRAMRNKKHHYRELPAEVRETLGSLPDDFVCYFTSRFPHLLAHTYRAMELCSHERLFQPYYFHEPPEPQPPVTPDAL
Experiment [11] deals with T2, Serine/threonine-protein kinase TBK1 (Homo sapiens) (UniProt Q9UHD2).
T2 sequence (whole entry): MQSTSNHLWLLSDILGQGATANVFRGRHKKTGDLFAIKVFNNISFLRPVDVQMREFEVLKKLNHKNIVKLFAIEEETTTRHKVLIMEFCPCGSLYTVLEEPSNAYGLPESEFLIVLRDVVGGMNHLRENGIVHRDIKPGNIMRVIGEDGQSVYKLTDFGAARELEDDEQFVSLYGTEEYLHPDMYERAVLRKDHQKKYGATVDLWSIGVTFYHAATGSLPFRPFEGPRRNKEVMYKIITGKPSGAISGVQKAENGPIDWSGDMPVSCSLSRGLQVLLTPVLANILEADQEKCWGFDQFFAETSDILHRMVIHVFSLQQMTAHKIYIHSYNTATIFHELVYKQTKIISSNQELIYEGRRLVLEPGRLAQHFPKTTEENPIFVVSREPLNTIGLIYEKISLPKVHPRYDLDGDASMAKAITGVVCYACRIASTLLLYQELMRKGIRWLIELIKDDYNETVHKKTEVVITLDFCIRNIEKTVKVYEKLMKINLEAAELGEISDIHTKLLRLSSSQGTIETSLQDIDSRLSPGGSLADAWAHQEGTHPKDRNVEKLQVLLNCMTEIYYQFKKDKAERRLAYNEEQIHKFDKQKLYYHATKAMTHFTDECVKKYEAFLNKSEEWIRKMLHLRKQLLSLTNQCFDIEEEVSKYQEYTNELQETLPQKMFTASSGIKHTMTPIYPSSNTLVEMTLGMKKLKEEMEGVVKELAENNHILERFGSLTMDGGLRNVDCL
Description: Selectivity interaction (KinomeScan (DiscoverX)) EUB0000607a TBK1. Conditions: at 10 µM.

Experiment [12] concerns the target Cyclin-dependent kinase 16 (Homo sapiens) (UniProt Q00536). Put plainly: Selectivity interaction (ActivX KiNativ screen (kinase selectivity in THP-1 cell lysates)) EUB0000639a CDK16. It counts as subcellular. The settings on record: lysate, at 0.01 µM.
For experiment [13], the target named is T3, Tyrosine-protein kinase ITK/TSK (Homo sapiens) (UniProt Q08881).
T3 sequence (whole entry): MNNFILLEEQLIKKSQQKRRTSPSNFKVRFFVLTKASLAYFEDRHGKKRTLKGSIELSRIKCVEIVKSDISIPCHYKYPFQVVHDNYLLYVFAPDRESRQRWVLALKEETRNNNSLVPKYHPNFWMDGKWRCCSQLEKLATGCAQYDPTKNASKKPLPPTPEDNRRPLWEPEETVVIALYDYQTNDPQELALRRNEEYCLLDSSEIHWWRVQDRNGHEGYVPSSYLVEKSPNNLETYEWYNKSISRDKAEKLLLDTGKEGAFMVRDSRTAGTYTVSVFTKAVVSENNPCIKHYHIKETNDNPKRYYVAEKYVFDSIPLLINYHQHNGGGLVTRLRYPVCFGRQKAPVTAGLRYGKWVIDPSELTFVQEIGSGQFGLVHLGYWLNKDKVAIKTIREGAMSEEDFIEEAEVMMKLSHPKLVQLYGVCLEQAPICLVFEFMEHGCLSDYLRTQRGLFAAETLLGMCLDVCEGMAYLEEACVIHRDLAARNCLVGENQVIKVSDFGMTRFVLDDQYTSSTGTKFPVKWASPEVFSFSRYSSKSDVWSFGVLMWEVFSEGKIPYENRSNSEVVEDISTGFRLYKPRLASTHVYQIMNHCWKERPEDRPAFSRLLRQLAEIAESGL
Conditions: at 10 µM.

SRSF protein kinase 1, sequence (Q96SB4 whole entry, the tested form may be a part): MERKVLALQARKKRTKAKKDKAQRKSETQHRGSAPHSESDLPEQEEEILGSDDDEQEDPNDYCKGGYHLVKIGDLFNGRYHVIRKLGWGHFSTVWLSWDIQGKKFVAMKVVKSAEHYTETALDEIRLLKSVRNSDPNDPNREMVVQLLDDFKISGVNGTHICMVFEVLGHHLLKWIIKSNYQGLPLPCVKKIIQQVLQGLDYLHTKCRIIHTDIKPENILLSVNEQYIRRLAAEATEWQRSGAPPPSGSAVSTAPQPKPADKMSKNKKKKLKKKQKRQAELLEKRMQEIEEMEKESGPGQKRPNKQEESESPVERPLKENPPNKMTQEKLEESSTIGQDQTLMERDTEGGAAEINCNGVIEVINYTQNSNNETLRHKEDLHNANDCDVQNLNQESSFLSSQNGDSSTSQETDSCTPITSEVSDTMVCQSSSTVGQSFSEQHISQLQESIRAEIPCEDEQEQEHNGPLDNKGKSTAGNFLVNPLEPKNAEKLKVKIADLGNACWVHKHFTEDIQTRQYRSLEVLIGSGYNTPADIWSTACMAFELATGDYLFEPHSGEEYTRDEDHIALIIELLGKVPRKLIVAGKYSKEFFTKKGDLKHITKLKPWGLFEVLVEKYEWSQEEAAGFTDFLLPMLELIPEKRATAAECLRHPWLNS
Cyclin-dependent kinase 16 (Homo sapiens), sequence (Q00536 whole entry): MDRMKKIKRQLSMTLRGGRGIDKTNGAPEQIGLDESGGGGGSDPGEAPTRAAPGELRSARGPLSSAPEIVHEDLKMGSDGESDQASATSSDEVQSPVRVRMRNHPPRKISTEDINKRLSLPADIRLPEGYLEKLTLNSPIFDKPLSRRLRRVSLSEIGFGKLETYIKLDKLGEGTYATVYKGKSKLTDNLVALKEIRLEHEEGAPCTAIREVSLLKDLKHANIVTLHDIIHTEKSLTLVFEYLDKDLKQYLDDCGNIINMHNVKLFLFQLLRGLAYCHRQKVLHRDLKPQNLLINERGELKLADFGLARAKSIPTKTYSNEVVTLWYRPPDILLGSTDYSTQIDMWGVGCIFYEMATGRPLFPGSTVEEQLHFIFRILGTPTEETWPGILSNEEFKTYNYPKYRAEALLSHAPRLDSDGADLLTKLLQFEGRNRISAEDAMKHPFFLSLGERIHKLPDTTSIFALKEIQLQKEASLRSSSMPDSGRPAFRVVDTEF
LIM domain kinase 2 (Homo sapiens), sequence (P53671 whole entry, looked up, the tested form may be a part): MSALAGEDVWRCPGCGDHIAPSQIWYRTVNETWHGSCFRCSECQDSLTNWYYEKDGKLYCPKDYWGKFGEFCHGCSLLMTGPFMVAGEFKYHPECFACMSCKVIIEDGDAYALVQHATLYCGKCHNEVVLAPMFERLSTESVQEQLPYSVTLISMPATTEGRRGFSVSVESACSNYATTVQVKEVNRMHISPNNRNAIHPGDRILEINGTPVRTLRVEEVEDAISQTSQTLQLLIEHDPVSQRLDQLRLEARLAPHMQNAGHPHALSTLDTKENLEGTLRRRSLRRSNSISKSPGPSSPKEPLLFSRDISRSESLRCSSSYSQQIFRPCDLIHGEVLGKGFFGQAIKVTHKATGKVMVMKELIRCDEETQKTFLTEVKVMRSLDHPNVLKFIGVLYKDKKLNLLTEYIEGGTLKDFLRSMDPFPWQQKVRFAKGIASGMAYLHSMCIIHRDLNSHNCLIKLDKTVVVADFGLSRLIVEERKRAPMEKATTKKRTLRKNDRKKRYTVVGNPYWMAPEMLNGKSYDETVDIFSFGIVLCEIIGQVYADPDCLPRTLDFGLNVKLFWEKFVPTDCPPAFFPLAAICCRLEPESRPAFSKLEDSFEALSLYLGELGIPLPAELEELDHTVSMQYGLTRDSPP
Insulin receptor-related protein (Homo sapiens), sequence (P14616 27-742 limits assumed): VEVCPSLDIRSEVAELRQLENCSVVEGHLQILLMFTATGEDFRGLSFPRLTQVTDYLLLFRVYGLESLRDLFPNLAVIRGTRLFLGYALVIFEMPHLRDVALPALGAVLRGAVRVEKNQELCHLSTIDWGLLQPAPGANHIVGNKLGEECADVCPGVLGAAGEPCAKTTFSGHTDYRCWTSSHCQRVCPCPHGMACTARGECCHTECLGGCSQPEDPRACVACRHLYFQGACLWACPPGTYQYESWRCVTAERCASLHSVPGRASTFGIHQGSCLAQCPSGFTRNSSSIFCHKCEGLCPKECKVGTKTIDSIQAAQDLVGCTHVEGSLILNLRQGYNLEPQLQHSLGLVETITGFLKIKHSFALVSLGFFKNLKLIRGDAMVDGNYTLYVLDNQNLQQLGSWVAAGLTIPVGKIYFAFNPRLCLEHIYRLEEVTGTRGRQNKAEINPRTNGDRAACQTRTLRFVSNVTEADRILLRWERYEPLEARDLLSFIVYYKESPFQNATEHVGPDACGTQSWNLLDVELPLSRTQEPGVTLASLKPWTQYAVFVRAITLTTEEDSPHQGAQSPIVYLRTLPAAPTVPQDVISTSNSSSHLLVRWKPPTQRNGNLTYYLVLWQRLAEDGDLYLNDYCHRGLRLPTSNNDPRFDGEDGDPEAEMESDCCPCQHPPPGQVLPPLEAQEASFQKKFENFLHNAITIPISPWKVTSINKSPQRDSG
Insulin receptor-related protein (Homo sapiens), sequence (P14616 747-1297 limits assumed): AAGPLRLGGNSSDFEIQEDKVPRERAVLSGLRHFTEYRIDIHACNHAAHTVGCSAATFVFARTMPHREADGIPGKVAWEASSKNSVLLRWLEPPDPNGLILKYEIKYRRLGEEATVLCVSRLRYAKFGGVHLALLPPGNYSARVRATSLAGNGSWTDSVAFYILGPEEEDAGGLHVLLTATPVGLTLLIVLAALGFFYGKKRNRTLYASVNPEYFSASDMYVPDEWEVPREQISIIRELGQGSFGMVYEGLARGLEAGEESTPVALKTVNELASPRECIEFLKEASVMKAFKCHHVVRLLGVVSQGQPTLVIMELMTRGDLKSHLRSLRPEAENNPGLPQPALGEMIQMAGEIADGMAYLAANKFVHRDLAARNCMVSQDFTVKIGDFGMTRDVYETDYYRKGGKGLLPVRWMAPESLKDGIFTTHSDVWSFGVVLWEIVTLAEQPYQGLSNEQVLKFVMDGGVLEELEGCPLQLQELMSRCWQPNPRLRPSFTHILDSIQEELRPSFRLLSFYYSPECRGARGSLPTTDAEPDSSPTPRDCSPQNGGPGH

For the compound `C=CC(=O)Nc1cccc(C(=O)Nc2ccc(Nc3cc(-c4[nH]c(SC)nc4C)ccn3)cc2)c1`, the % of control in [1] (at 1 µM) was 99%; in [1] (at 5 µM) it was 86%. Turning to `Cc1cc([C@@H](C)Nc2ccccc2C(=O)O)c2nc(N3CCOCC3)cc(=O)n2c1` [AZD-6482], in experiment [2], the % of control came to 100%.

With `CN(C)C/C=C/C(=O)Nc1ccc(C(=O)N2CCCC(Nc3ncc(Cl)c(-c4c[nH]c5ccccc45)n3)C2)cc1` (centres undefined), the % of control in experiment [3] worked out at 62%. In experiment [4], `CC(=O)Nc1cccc(-n2c(=O)n(C3CC3)c(=O)c3c(Nc4ccc(I)cc4F)n(C)c(=O)c(C)c32)c1` came in with a Kdapp of 9 nM. With `CCC(=O)N1CCN(c2ccc(-n3c(=O)ccc4cnc5ccc(-c6cnc7ccccc7c6)cc5c43)cc2C(F)(F)F)CC1`, in [5], the % of control stood at 82%. In the case of `Cc1cnc(Nc2ccc(F)cc2Cl)nc1-c1c[nH]c(C(=O)N[C@H](CO)c2cccc(Cl)c2)c1`, the % of inhibition in experiment [6] was determined as 0%. As to `Cc1cc(CN)cc(C)c1-c1ncn(C)c1-c1cncn1C`, in experiment [7], the dTM was -1.97 K. Compound `C=CC(=O)Nc1cc(-n2c(=O)ccc3cnc4ccc(-c5ccc(NS(C)(=O)=O)cc5)cc4c32)ccc1C` yielded a % of control in experiment [8] of 100%. In the case of `O=C(NOC[C@H](O)CO)c1ccc(F)c(F)c1Nc1ccc(I)cc1F`, the % of control in experiment [9] was determined as 87%; in experiment [10], 97%. Consider `CNC(=O)Nc1ccc(-c2nc(N3CC4CCC(C3)O4)c3cnn(C4CCC5(CC4)OCCO5)c3n2)cc1`, for which, in [11], the % of control was determined as 82%.

As to `CC[C@@H]1[C@H](F)C(=O)N[C@@H]1COc1nccc2cc(C(N)=O)c(OC)cc12` [ZIMLOVISERTIB], the % of inhibition in experiment [12] was -0.6%.

Consider `COCC(=O)NC/C=C/c1ccc2ncnc(Nc3ccc(Oc4ccc(C)nc4)c(C)c3)c2c1` [CP-724714], for which the % of control in experiment [13] amounted to 92%.

The values are drawn from ChEMBL document CHEMBL5465560, “Selectivity Literature for EUbOPEN Chemogenomic Library” (2024).
